Measurements published in publication PMC12274739, “Differential substrate degradation by super-degron: EGFP in wild-type mouse cells, PD-1 requires CRBN humanization” (iScience, 2025).
Like-named read-outs stand apart in the source and are kept apart here.

How the values were obtained:
EGFP-SD (C-terminal SD) [1] = target: EGFP-SD (C-terminal SD) (Aequorea victoria, UniProt P42212, F64L/H231L/S65T); format: cell-based, mouse; details: transient, 24 h; for DC50: read-out: DC50, EGFP-SD
EGFP-SD (C-terminal SD) [2] = format: cell-based, mouse; details: Crbn+/I391V mESCs (h/mCRBN), transient, 24 h
SD-EGFP (N-terminal SD) [3] = format: cell-based, mouse; details: Crbn+/I391V mESCs (h/mCRBN), transient, 24 h
SD-EGFP (N-terminal SD) [4] = target: SD-EGFP (N-terminal SD) (Aequorea victoria, UniProt P42212, F64L/H231L/S65T); format: cell-based, mouse; details: transient, 24 h; for DC50: read-out: DC50, SD-EGFP
[5] = tested on: MC-38 adenocarcinoma cells; assay: Growth of inoculated MC-38 adenocarcinoma cells in mice; format: in vivo, mouse
Procedure: Data are represented as mean ± standard error (SEM). The same experiment was repeated twice to confirm reproducibility. p-values were determined by two-way ANOVA multiple comparisons. ∗∗∗∗p < 0.0001 and ∗p = 0.0267. […] Data are represented as mean ± SEM. The same experiment was repeated twice to confirm reproducibility. p-values were determined by two-way ANOVA multiple comparisons. ∗∗∗∗p < 0.0001, ∗∗∗p = 0.0005, ∗∗p = 0.0067. […] Ratio of PD-1 positive cells and mean fluorescence intensity (MFI) of PD-1 (D), TIM-3 (E), and LAG-3 (F) on CD8^+ and CD4^+ T cells isolated from tumor microenvironments 9 days after the initiation of treatment are shown. Fluorescence intensity of each molecule was measured by flow cytometry, and the geometric MIFs of marker-positive cells were calculated. The data in two experiments were compiled. p-values were determined by the Brown-Forsythe and Welch ANOVA test. Different letters indicate statistically significant differences between groups (p < 0.05). […]
Next, the effects of SD-induced PD-1 reduction were compared with those of anti-PD-1 antibody treatment in vivo. […] CD3^+ T cells infiltrating the MC-38 microenvironment were analyzed on day 9 of treatment before the MC-38 tumor masses had shrunk with treatment and no longer provided sufficient T cells for FACS analyses. […]

O=C1CC[C@H](N2Cc3c(OCc4ccc(CN5CCOCC5)cc4)cccc3C2=O)C(=O)N1 [IBR, iberdomide]
Bottom, EGFP-SD (EGFP/mCherry MFI) (EGFP-SD (C-terminal SD) [1]; B6J-S1 mESCs): 0.03557
bottom vs top, EGFP-SD (EGFP-SD (C-terminal SD) [1]; B6J-S1 mESCs): 0.10
Bottom, EGFP-SD (EGFP/mCherry MFI) (EGFP-SD (C-terminal SD) [1]; Crbn+/+ mESCs (mCRBN)): 0.04584
bottom vs top, EGFP-SD (EGFP-SD (C-terminal SD) [1]; Crbn+/+ mESCs (mCRBN)): 0.15
Bottom, EGFP-SD (EGFP/mCherry MFI) (EGFP-SD (C-terminal SD) [1]; CrbnI391V/I391V mESCs (hCRBN)): 0.007275
bottom vs top, EGFP-SD (EGFP-SD (C-terminal SD) [1]; CrbnI391V/I391V mESCs (hCRBN)): 0.03
DC50 (EGFP-SD (C-terminal SD) [1]; B6J-S1 mESCs): 0.815 nM
DC50 (EGFP-SD (C-terminal SD) [1]; Crbn+/+ mESCs (mCRBN)): 2.17 nM
DC50 (EGFP-SD (C-terminal SD) [1]; CrbnI391V/I391V mESCs (hCRBN)): 0.0654 nM
Bottom, EGFP-SD (EGFP/mCherry MFI) (EGFP-SD (C-terminal SD) [2]): 0.01502
DC50 (EGFP-SD (C-terminal SD) [2]): 0.0707 nM
bottom vs top, EGFP-SD (EGFP-SD (C-terminal SD) [2]): 0.04
Bottom, SD-EGFP (EGFP/mCherry MFI) (SD-EGFP (N-terminal SD) [3]): 0.07126
DC50 (SD-EGFP (N-terminal SD) [3]): 0.0784 nM
bottom vs top, SD-EGFP (SD-EGFP (N-terminal SD) [3]): 0.18
Bottom, SD-EGFP (EGFP/mCherry MFI) (SD-EGFP (N-terminal SD) [4]; B6J-S1 mESCs): 0.09529
bottom vs top, SD-EGFP (SD-EGFP (N-terminal SD) [4]; B6J-S1 mESCs): 0.24
Bottom, SD-EGFP (EGFP/mCherry MFI) (SD-EGFP (N-terminal SD) [4]; Crbn+/+ mESCs (mCRBN)): 0.113
bottom vs top, SD-EGFP (SD-EGFP (N-terminal SD) [4]; Crbn+/+ mESCs (mCRBN)): 0.25
Bottom, SD-EGFP (EGFP/mCherry MFI) (SD-EGFP (N-terminal SD) [4]; CrbnI391V/I391V mESCs (hCRBN)): 0.04953
bottom vs top, SD-EGFP (SD-EGFP (N-terminal SD) [4]; CrbnI391V/I391V mESCs (hCRBN)): 0.13
DC50 (SD-EGFP (N-terminal SD) [4]; B6J-S1 mESCs): 1.82 nM
DC50 (SD-EGFP (N-terminal SD) [4]; Crbn+/+ mESCs (mCRBN)): 6.06 nM
DC50 (SD-EGFP (N-terminal SD) [4]; CrbnI391V/I391V mESCs (hCRBN)): 0.0637 nM
MC-38 cell proliferation ([5]; Pdcd1+/+/CrbnI391V/I391V mice): comparable
growth of MC-38 cells ([5]; Pdcd1SD/SD/CrbnI391V/I391V mice, oral administration of IBR): suppressed proliferation for the entire period
